In this test the target is T1, human chemokine receptor 2 isoform B (CCR2B) (Homo sapiens, UniProt P41597).
T1 construct: host or cells: CHO-K1 (CHOK1-CCR2B-A5)
T1 sequence (P41597 1-360 isoform P41597-2): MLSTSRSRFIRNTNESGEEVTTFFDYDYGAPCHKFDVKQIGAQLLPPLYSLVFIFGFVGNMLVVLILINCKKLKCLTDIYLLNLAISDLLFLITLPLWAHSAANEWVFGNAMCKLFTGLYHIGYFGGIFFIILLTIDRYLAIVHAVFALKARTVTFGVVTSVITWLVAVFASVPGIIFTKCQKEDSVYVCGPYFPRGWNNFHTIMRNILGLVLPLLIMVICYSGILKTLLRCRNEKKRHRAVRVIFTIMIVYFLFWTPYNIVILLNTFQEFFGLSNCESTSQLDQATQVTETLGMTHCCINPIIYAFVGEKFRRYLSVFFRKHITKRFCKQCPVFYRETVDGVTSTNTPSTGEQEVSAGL
Nature of the test: Calcium mobilization assay (FLIPR, MCP-1 stimulated CHOK1-CCR2B-A5 cells). It counts as cell-based. Particulars: 20 nM MCP-1, antagonist activity, read-out: IC50 (inhibitor concentration required for 50% inhibition of specific calcium increases). The method, then: Calcium Mobilization Assay
CHOK1-CCR2B-A5 cells (from Euroscreen) stably overexpressing the human chemokine receptor 2 isoform B were cultured in Nutrient Hams F12 medium supplemented with 5% FBS, 100 U/ml penicillin, 100 μg/ml streptomycin, 400 μg/ml G418 and 5 μg/ml puromycin.
For the assay cells were grown overnight in 384-well black clear flat bottom polystyrene plates (Costar) at 37° C. at 5% CO2. After washing with DMEM, 20 mM Hepes, 2.5 mM probenecid, 0.1% BSA (DMEM assay buffer) cells were loaded with 4 μM Fluo-4 in the same DMEM assay buffer for 2 hours at 30° C. Excess dye was removed and cells were washed with DMEM assay buffer. 384-well compound plates were prepared with DMEM assay buffer/0.5% DMSO with or without various concentrations of test compounds. Usually compounds were tested for agonist and antagonist activity.
Test compounds were added to the assay plate and agonist activity was monitored as fluorescence for 80 seconds with a FLIPR (488 nm excitation; 510-570 nm emission; Molecular Devices). After 20-30 min. of incubation at 30° C., 20 nM MCP-1 (R&D; Roche) was added and fluorescence was monitored again for 80 seconds. Increases in intracellular calcium are reported as maximum fluorescence after agonist exposure minus basal fluorescence before exposure. Antagonist activity is indicated as inhibitor concentration required for 50% inhibition of specific calcium increases.
On the technique in general: Calcium assays in cells follow changes in intracellular calcium, usually with a dye or a luminescent sensor.
As for `Cc1cc(-c2cccc(C(F)(F)F)c2)cnc1C(=O)N1CCC(N2CCCC2)CC1` [Example 1, [3-Methyl-5-(3-trifluoromethyl-phenyl)-pyridin-2-yl]-(4-pyrrolidin-1-yl-piperidin-1-yl)-methanone], the IC50 turned out to be 18 nM. With `Cc1cc(-c2cccc(C(F)(F)F)c2)c[n+]([O-])c1C(=O)N1CCC(N2CCCC2)CC1` [Example 2, [3-Methyl-1-oxy-5-(3-trifluoromethyl-phenyl)-pyridin-2-yl]-(4-pyrrolidin-1-yl-piperidin-1-yl)-methanone], the IC50 stood at 23 nM. Turning to `Cc1cc(-c2cccc(C(F)(F)F)c2)c(Cl)nc1C(=O)N1CCC(N2CCCC2)CC1` [Example 3, [6-Chloro-3-methyl-5-(3-trifluoromethyl-phenyl)-pyridin-2-yl]-(4-pyrrolidin-1-yl-piperidin-1-yl)-methanone], the IC50 came out at 4 nM. To `Cc1cc(-c2cccc(C(F)(F)F)c2)cnc1C(=O)N1CCC(N2CCC[C@H]2CO)CC1` [Example 5, [4-((S)-2-Hydroxymethyl-pyrrolidin-1-yl)-piperidin-1-yl]-[3-methyl-5-(3-trifluoromethyl-phenyl)-pyridin-2-yl]-methanone] belongs 21 nM; to `COc1ccc(CNc2nc(C(=O)N3CCC(N4CCCC4)CC3)c(C)cc2-c2cccc(C(F)(F)F)c2)cc1` [Example 6, [6-(4-Methoxy-benzylamino)-3-methyl-5-(3-trifluoromethyl-phenyl)-pyridin-2-yl]-(4-pyrrolidin-1-yl-piperidin-1-yl)-methanone], 130 nM. With `Cc1cc(-c2cccc(C(F)(F)F)c2)c(N)nc1C(=O)N1CCC(N2CCCC2)CC1` [Example 7, [6-Amino-3-methyl-5-(3-trifluoromethyl-phenyl)-pyridin-2-yl]-(4-pyrrolidin-1-yl-piperidin-1-yl)-methanone], the IC50 was 16 nM.

In the case of `COc1nc(C(=O)N2CCC(N3CCCC3)CC2)c(C)cc1-c1cccc(C(F)(F)F)c1` [Example 8, [6-Methoxy-3-methyl-5-(3-trifluoromethyl-phenyl)-pyridin-2-yl]-(4-pyrrolidin-1-yl-piperidin-1-yl)-methanone], the IC50 worked out at 65 nM. To `Cc1cc(-c2cccc(C(F)(F)F)c2)c(O)nc1C(=O)N1CCC(N2CCCC2)CC1` [Example 9, [6-Hydroxy-3-methyl-5-(3-trifluoromethyl-phenyl)-pyridin-2-yl]-(4-pyrrolidin-1-yl-piperidin-1-yl)-methanone; 5-Methyl-6-(4-pyrrolidin-1-yl-piperidine-1-carbonyl)-3-(3-trifluoromethyl-phenyl)-1H-pyridin-2-one (tautomers)] belongs 6.4 nM; to `CC(=O)N(C(C)=O)c1nc(C(=O)N2CCC(N3CCCC3)CC2)c(C)cc1-c1cccc(C(F)(F)F)c1` [Example 10, N-Acetyl-N-[5-methyl-6-(4-pyrrolidin-1-yl-piperidine-1-carbonyl)-3-(3-trifluoromethyl-phenyl)-pyridin-2-yl]-acetamide], 78 nM. The figure for `CC(=O)Nc1nc(C(=O)N2CCC(N3CCCC3)CC2)c(C)cc1-c1cccc(C(F)(F)F)c1` [Example 11, N-[5-Methyl-6-(4-pyrrolidin-1-yl-piperidine-1-carbonyl)-3-(3-trifluoromethyl-phenyl)-pyridin-2-yl]-acetamide] is 71 nM.

For `Cc1cc(-c2cccc(C(F)(F)F)c2)n(C)c(=O)c1C(=O)N1CCC(N2CCCC2)CC1` [Example 13, 1,4-Dimethyl-3-(4-pyrrolidin-1-yl-piperidine-1-carbonyl)-6-(3-trifluoromethyl-phenyl)-1H-pyridin-2-one], the IC50 stood at 58 nM.

Take `O=C(c1ncc(-c2cccc(C(F)(F)F)c2)cc1Cl)N1CCC(N2CCCC2)CC1` [Example 14, [3-Chloro-5-(3-trifluoromethyl-phenyl)-pyridin-2-yl]-(4-pyrrolidin-1-yl-piperidin-1-yl)-methanone]: the IC50 came out at 12 nM. The figure for `O=C(c1ncc(-c2cccc(C(F)(F)F)c2)cc1-c1cccc(C(F)(F)F)c1)N1CCC(N2CCCC2)CC1` [Example 15, [3,5-Bis-(3-trifluoromethyl-phenyl)-pyridin-2-yl]-(4-pyrrolidin-1-yl-piperidin-1-yl)-methanone] is 250 nM; for `Cc1cc(-c2cccc(C(F)(F)F)c2)c(-c2cccnc2)nc1C(=O)N1CCC(N2CCCC2)CC1` [Example 16, [5-Methyl-3-(3-trifluoromethyl-phenyl)-[2,3′]bipyridinyl-6-yl]-(4-pyrrolidin-1-yl-piperidin-1-yl)-methanone] it is 4.2 nM; for `Cc1cc(-c2cccc(C(F)(F)F)c2)c(-c2cncnc2)nc1C(=O)N1CCC(N2CCCC2)CC1` [Example 17, [3-Methyl-6-pyrimidin-5-yl-5-(3-trifluoromethyl-phenyl)-pyridin-2-yl]-(4-pyrrolidin-1-yl-piperidin-1-yl)-methanone] it is 8.7 nM.

For `Cc1cc(-c2cccc(C(F)(F)F)c2)nc(N)c1C(=O)N1CCC(N2CCCC2)CC1` [Example 19, [2-Amino-4-methyl-6-(3-trifluoromethyl-phenyl)-pyridin-3-yl]-(4-pyrrolidin-1-yl-piperidin-1-yl)-methanone], the IC50 came out at 64 nM. The figure for `Cc1cc(-c2cccc(C(F)(F)F)c2)c(-n2cnc(Cl)n2)nc1C(=O)N1CCC(N2CCCC2)CC1` [Example 20, [6-(3-Chloro-[1,2,4]triazol-1-yl)-3-methyl-5-(3-trifluoromethyl-phenyl)-pyridin-2-yl]-(4-pyrrolidin-1-yl-piperidin-1-yl)-methanone] is 4 nM; for `O=C(c1nc(Cl)c(-c2cccc(C(F)(F)F)c2)cc1Cl)N1CCC(N2CCCC2)CC1` [Example 21, [3,6-Dichloro-5-(3-trifluoromethyl-phenyl)-pyridin-2-yl]-(4-pyrrolidin-1-yl-piperidin-1-yl)-methanone] it is 3.2 nM. In the case of `COc1nc(C(=O)N2CCC(N3CCCC3)CC2)c(Cl)cc1-c1cccc(C(F)(F)F)c1` [Example 22, [3-Chloro-6-methoxy-5-(3-trifluoromethyl-phenyl)-pyridin-2-yl]-(4-pyrrolidin-1-yl-piperidin-1-yl)-methanone], the IC50 stood at 18 nM. The figure for `O=C(c1nc(O)c(-c2cccc(C(F)(F)F)c2)cc1Cl)N1CCC(N2CCCC2)CC1` [Example 23, [3-Chloro-6-hydroxy-5-(3-trifluoromethyl-phenyl)-pyridin-2-yl]-(4-pyrrolidin-1-yl-piperidin-1-yl)-methanone; 5-Chloro-6-(4-pyrrolidin-1-yl-piperidine-1-carbonyl)-3-(3-trifluoromethyl-phenyl)-1H-pyridin-2-one (tautomers)] is 41 nM; for `C#Cc1nc(C(=O)N2CCC(N3CCCC3)CC2)c(C)cc1-c1cccc(C(F)(F)F)c1` [Example 24, [6-Ethynyl-3-methyl-5-(3-trifluoromethyl-phenyl)-pyridin-2-yl]-(4-pyrrolidin-1-yl-piperidin-1-yl)-methanone] it is 4.8 nM; for `Cc1cc(-c2cccc(C(F)(F)F)c2)c(-n2cncn2)nc1C(=O)N1CCC(N2CCCC2)CC1` [Example 25, [3-Methyl-6-[1,2,4]triazol-1-yl-5-(3-trifluoromethyl-phenyl)-pyridin-2-yl]-(4-pyrrolidin-1-yl-piperidin-1-yl)-methanone] it is 2.3 nM.

Values taken from US8227613B2, “Heteroaryl carboxamide derivatives” (Hoffmann-La Roche Inc., priority 2008, dated 2012).
